Earlier results, collected in US20240299372A1, “Transdermal Drug Delivery Systems for Administration of a Therapeutically Effective Amount of Apixaban and Other Direct Oral Anticoagulants” (Pike Therapeutics Inc., priority 2023, published 2024).

Key:
[1] = for Absolute oral bioavailability: oral administration; for bioavailability: oral, background statement on GI tract exposure
[2] = oral administration; literature refs [1-4]

Row | Absolute oral bioavailability [1] | bioavailability [1] | bleeding complications as reason for DOAC discontinuation [2] | SMILES
1 | approx. 34% | – | – | COc1ccc(NC(=O)c2ccc(C(=N)N(C)C)cc2)c(C(=O)Nc2ccc(Cl)cn2)c1 [Betrixaban, N-(5-chloropyridin-2-yl)-2-[[4-(N,N-dimethylcarbamimidoyl)benzoyl]amino]-5-methoxybenzamide]
2 | approx. 62% | – | – | CN1CCc2nc(C(=O)N[C@@H]3C[C@@H](C(=O)N(C)C)CC[C@@H]3NC(=O)C(=O)Nc3ccc(Cl)cn3)sc2C1 [Edoxaban, N′-(5-chloropyridin-2-yl)-N-[(1S,2R, 4S)-4-(dimethylcarbamoyl)-2-[(5-methyl-6,7-dihydro-4H-[1,3]thiazolo[5,4-c]pyridine-2-carbonyl)amino]cyclohexyl]oxamide]
3 | 3%-7 | 6% | 3.4-9.7% | [H]/N=C(/N)c1ccc(NCc2nc3cc(C(=O)N(CCC(=O)O)c4ccccn4)ccc3n2C)cc1 [Dabigatran, 3-[[2-[(4-carbamimidoylanilino)methyl]-1-methylbenzimidazole-5-carbonyl]-pyridin-2-ylamino]propanoic acid]

Continued, compound first:

Row | SMILES | Absolute oral bioavailability [1] | bioavailability [1] | bleeding complications as reason for DOAC discontinuation [2]
4 | O=C(NC[C@H]1CN(c2ccc(N3CCOCC3=O)cc2)C(=O)O1)c1ccc(Cl)s1 [Rivaroxaban, 5-chloro-N-[[(5S)-2-oxo-3-[4-(3-oxomorpholin-4-yl)phenyl]-1,3-oxazolidin-5-yl]methyl]thiophene-2-carboxamide] | 80%-100 | 60-80% | 16.8-24.5%
5 | COc1ccc(-n2nc(C(N)=O)c3c2C(=O)N(c2ccc(N4CCCCC4=O)cc2)CC3)cc1 [Apixaban, 1-(4-methoxyphenyl)-7-oxo-6-[4-(2-oxopiperidin-1-yl)phenyl]-4,5-dihydropyrazolo[3,4-c]pyridine-3-carboxamide] | approx. 50% | – | 5.7-10.1%
